In US20070270421A1, “Novel pyridine Derivative and Pyrimidine Derivative (1)” (priority 2004, published 2007) one finds IC50 data, which are given here for 5 compounds.

The target of the assay is T1, HGFR (His6-HGFR cytoplasmic domain) (Homo sapiens, UniProt P08581).
T1 construct: made in house; host or cells: Spodoptera frugiperda Sf9 insect cells (baculovirus, pFastBac-HT)
The assay is described as follows: Inhibitory activity against HGFR tyrosine kinase activity (HTRF). The assay is classed as biochemical. The conditions noted are these: biotin-poly(GT), ATP, 30° C. 10 min, read-out: IC50 (concentration necessary to inhibit HGFR kinase activity by 50%). Summed up: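 Baculovirus/Sf9-expressed N-terminal His6-tagged HGFR cytoplasmic domain (from Lys974), Ni-NTA purified, phosphorylated biotin-poly(GT) in Hepes pH 7.4 with MgCl2/MnCl2. ATP added as 4 μM solution; 10 min at 30° C., stopped with EDTA. Phosphotyrosine product detected by HTRF.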
(Time-resolved FRET reads energy transfer from a long-lived donor to a nearby acceptor.)

T1 sequence (P08581 956-1390 limits assumed): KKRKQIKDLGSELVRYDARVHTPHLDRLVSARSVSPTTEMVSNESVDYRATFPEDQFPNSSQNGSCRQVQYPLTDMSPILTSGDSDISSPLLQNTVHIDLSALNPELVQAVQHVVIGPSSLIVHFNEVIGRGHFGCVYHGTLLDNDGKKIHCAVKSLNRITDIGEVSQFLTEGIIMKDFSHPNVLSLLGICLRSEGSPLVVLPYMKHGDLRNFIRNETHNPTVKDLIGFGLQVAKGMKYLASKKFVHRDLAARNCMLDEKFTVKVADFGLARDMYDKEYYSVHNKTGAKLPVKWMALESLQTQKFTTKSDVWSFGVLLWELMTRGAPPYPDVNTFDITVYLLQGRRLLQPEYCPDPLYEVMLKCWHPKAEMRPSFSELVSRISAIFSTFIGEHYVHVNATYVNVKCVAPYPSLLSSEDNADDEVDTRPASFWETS

In the case of `CN1CCN(C2CCN(C(=O)Nc3cc(Oc4ccc(NC(=S)NC(=O)Cc5ccccc5)cc4F)ccn3)CC2)CC1` [Example 182, 4-{2-Fluoro-4-[3-(2-phenylacetyl)thioureido]phenoxy}-2-{[4-(1-methylpiperazin-4-yl)piperidin-1-yl]carbonylamino}pyridine], the IC50 worked out at 70 nM. Turning to `CN1CC(N2CCC(N(C)C(=O)Nc3cc(Oc4ccc(NC(=S)NC(=O)Cc5ccccc5)cc4F)ccn3)CC2)C1` [Example 330, 3-{4-[2-Fluoro-4-(3-phenylacetylthioureido)phenoxy]pyridin-2-yl}-1-methyl-1-[1-(1-methylazetidin-3-yl)piperidin-4-yl]urea], the IC50 was found to be 50 nM. For `O=C(Cc1ccc(F)cc1)NC(=O)Nc1ccc(Oc2ccnc(NC(=O)N3CCC(CN4CCCC4)CC3)c2)cc1` [Example 390, 4-(Pyrrolidin-1-ylmethyl)piperidine-1-carboxylic acid [4-(4-{3-[2-(4-fluorophenyl)acetyl]ureido}phenoxy)pyridin-2-yl]amide] the value was 120 nM. Next, `CN(C)C[C@@H]1CCN(C(=O)Nc2cc(Oc3ccc(NC(=S)NC(=O)Cc4ccc(F)cc4)cc3F)ncn2)C1` [Example 179, 4-{[(3S)-3-(Dimethylaminomethyl)pyrrolidin-1-yl]carbonylamino}-6-(2-fluoro-4-{3-[2-(4-fluorophenyl)acetyl]thioureido}phenoxy)pyrimidine]: 25 nM; `CN(C)CCCN1CCC(N(C)C(=O)Nc2cc(Oc3ccc(NC(=S)NC(=O)Cc4ccc(F)cc4)cc3F)ncn2)CC1` [Example 221, 1-[1-(3-Dimethylaminopropyl)piperidin-4-yl]-3-[6-(2-fluoro-4-{3-[2-(4-fluorophenyl)acetyl]thioureido}phenoxy)pyrimidin-4-yl]-1-methylurea]: 170 nM.
